The values that follow come from ChEMBL document CHEMBL1146329, “Structure-activity relationship in the 3-iodo-4-phenoxypyridinone (IOPY) series: The nature of the C-3 substituent on anti-HIV activity” (Bioorg Med Chem Lett, 2007).

One may read the IC50 as the concentration that gives 50% inhibition.

The subject of assay [1] is Human immunodeficiency virus 1. Nature of the assay: Antiviral activity against HIV1 LAI assessed as inhibition of viral-induced cytopathicity in MT4 cells by MTT method. The format is functional, organism-based. The conditions noted are these: Human immunodeficiency virus 1, LAI.
A short description of assay [2]: Selectivity index, ratio of CC50 for MT4 cells to IC50 for HIV1 LAI. The format is functional.
Assay [3] concerns Human immunodeficiency virus 1. Nature of the assay: Antiviral activity against HIV1 RT 100I/103N mutant assessed as inhibition of viral-induced cytopathicity in MT4 cells by MTT method. It counts as functional, organism-based. The conditions noted are these: Human immunodeficiency virus 1, MT4. A general note: Cytopathic effects are the visible damage that an infection or toxin causes in cultured cells.

Assay [4] has as its system Human immunodeficiency virus 1. Nature of the assay: Antiviral activity against HIV1 RT 100I mutant assessed as inhibition of viral-induced cytopathicity in MT4 cells by MTT method. The format is functional, organism-based. The conditions noted are these: Human immunodeficiency virus 1, MT4.
Assay [5] deals with Human immunodeficiency virus 1. Nature of the assay: Antiviral activity against HIV1 with RT 103N mutant assessed as inhibition of viral-induced cytopathicity in MT4 cells by MTT method. It counts as functional, organism-based. The conditions noted are these: Human immunodeficiency virus 1, MT4.
Assay [6] concerns Human immunodeficiency virus 1. Briefly: Antiviral activity against HIV1 RT 181C mutant assessed as inhibition of viral-induced cytopathicity in MT4 cells by MTT method. It counts as functional, organism-based. The settings on record: Human immunodeficiency virus 1, MT4.
The subject of assay [7] is Human immunodeficiency virus 1. Briefly: Antiviral activity against HIV1 RT 103N/181C mutant assessed as inhibition of viral-induced cytopathicity in MT4 cells by MTT method. It counts as functional, organism-based. The settings on record: Human immunodeficiency virus 1, MT4.
Assay [8] deals with Human immunodeficiency virus 1. Briefly: Antiviral activity against HIV1 RT 188L mutant assessed as inhibition of viral-induced cytopathicity in MT4 cells by MTT method. The format is functional, organism-based. The conditions noted are these: Human immunodeficiency virus 1, MT4.

As to `CCc1c(Oc2cc(C)cc(C)c2)cc(=O)[nH]c1C`, the IC50 in assay [1] was determined as 398 nM.
As to `CCc1c(C)[nH]c(=O)c(/C=N/O)c1Oc1cc(C)cc(C)c1`, in assay [1], the IC50 stood at 31.6 nM.
Consider `CCc1c(C)[nH]c(=O)c(CO)c1Oc1cc(C)cc(C)c1`, for which, in assay [2], the “Ratio CC50/IC50” value was 5012. Also, the IC50 in assay [1] is 19.9 nM.
As to `CCc1c(C)[nH]c(=O)c(SC)c1Oc1cc(C)cc(C)c1`, the IC50 in assay [3] stood at 63.1 nM; in assay [4], 19.9 nM; in assay [5], 31.6 nM; in assay [6], 31.6 nM; in assay [1], 1.99 nM; in assay [7] it was 31.6 nM. Besides, in assay [8], the IC50 came out at 125 nM. For the same compound, the “Ratio CC50/IC50” value in assay [2] is listed as 25119.
On to `CCc1c(C)[nH]c(=O)c(Sc2ccccc2)c1Oc1cc(C)cc(C)c1`, for which the IC50 in assay [3] came to 1580 nM; in assay [4], 125 nM; in assay [5] it was 794 nM; in assay [6] it was 158 nM; in assay [1], 10 nM; in assay [7] it was 1580 nM. Moreover, the IC50 in assay [8] came out at 794 nM. For the same compound, the “Ratio CC50/IC50” value in assay [2] is given as 5012.
`CCc1c(C)[nH]c(=O)c(OC)c1Oc1cc(C)cc(C)c1`: the IC50 in assay [3] is 316 nM; in assay [4], 31.6 nM; in assay [5], 79.4 nM; in assay [6], 158 nM; in assay [1], 2.5 nM; in assay [7], 501 nM. Besides, in assay [8], the IC50 was determined as 794 nM. The “Ratio CC50/IC50” value in assay [2] was determined as 39811.
For the compound `CCc1c(C)[nH]c(=O)c(C(F)(F)F)c1Oc1cc(C)cc(C)c1`, in assay [2], the “Ratio CC50/IC50” value turned out to be 12589. The half-inhibitory concentration (IC50) in assay [4] worked out at 31.6 nM; in assay [5], 12.5 nM; in assay [6] it was 50.1 nM; in assay [1], 3.1 nM; in assay [8], 199 nM.
With `CCc1c(C)[nH]c(=O)c(I)c1Oc1cc(C)cc(C)c1`, the IC50 turned out to be 19.9 nM in assay [3]; 6.31 nM in assay [4]; 3.16 nM in assay [5]; 19.9 nM in assay [6]; 1.25 nM in assay [1]; 39.8 nM in assay [7]. Moreover, the concentration for half-maximal inhibition (IC50) in assay [8] is 50.1 nM. In assay [2], the “Ratio CC50/IC50” value was 9000.
On to `C/C=C/c1c(Oc2cc(C)cc(C)c2)c(CC)c(C)[nH]c1=O`, for which the half-inhibitory concentration (IC50) in assay [1] came to 39.8 nM.
Same read-out and setting: the figure for `CCc1c(C)[nH]c(=O)c(C#Cc2ccccc2)c1Oc1cc(C)cc(C)c1` is 15800 nM; for `CCSc1c(Oc2cc(C)cc(C)c2)c(CC)c(C)[nH]c1=O` it is 125 nM; for `CCc1c(C)[nH]c(=O)c(C(=O)N(C)C)c1Oc1cc(C)cc(C)c1` it is 5020 nM.
Same read-out and setting: the figure for `CCc1c(C)[nH]c(=O)c(C#N)c1Oc1cc(C)cc(C)c1` is 79.4 nM.
For the compound `CCc1c(C)[nH]c(=O)c(Br)c1Oc1cc(C)cc(C)c1`, the IC50 in assay [3] is 63.1 nM; in assay [5] it was 39.8 nM; in assay [6] it was 63.1 nM; in assay [1], 1.99 nM; in assay [7] it was 158 nM; in assay [8] it was 631 nM. In assay [2], the “Ratio CC50/IC50” value was found to be 90119.
With `CCc1c(C)[nH]c(=O)c(Cl)c1Oc1cc(C)cc(C)c1`, in assay [2], the “Ratio CC50/IC50” value stood at 10000. Besides, the half-maximal inhibitory concentration (IC50) is 31.6 nM in assay [4]; 19.9 nM in assay [5]; 100 nM in assay [6]; 6.3 nM in assay [1]; 398 nM in assay [8].
For the compound `C=Cc1c(Oc2cc(C)cc(C)c2)c(CC)c(C)[nH]c1=O`, the “Ratio CC50/IC50” value in assay [2] was 6309. The IC50 in assay [4] was 6.3 nM; in assay [5], 3.1 nM; in assay [6], 19.9 nM; in assay [1], 3.1 nM; in assay [7], 200 nM; in assay [8], 12.5 nM.
In the case of `CCc1c(C)[nH]c(=O)c(SCCC(N)=O)c1Oc1cc(C)cc(C)c1`, the “Ratio CC50/IC50” value in assay [2] came out at 1995. For the same compound, the IC50 worked out at 158 nM in assay [4]; 316 nM in assay [5]; 794 nM in assay [6]; 12.5 nM in assay [1]; 2510 nM in assay [8].
On to `CCc1c(C)[nH]c(=O)c(C2CC2)c1Oc1cc(C)cc(C)c1`, for which the “Ratio CC50/IC50” value in assay [2] is listed as 1259. Besides, the concentration for half-maximal inhibition (IC50) stood at 39.8 nM in assay [4]; 199 nM in assay [5]; 158 nM in assay [6]; 6.3 nM in assay [1]; 158 nM in assay [8].
Take `CCOC(=O)c1c(Oc2cc(C)cc(C)c2)c(CC)c(C)[nH]c1=O`: the IC50 in assay [1] worked out at 631 nM.
The same measure, in the same setting: the figure for `CCOC(=O)/C=C/c1c(Oc2cc(C)cc(C)c2)c(CC)c(C)[nH]c1=O` is 6310 nM; for `CCc1c(C)[nH]c(=O)c(/C=C/CO)c1Oc1cc(C)cc(C)c1` it is 63.1 nM; for `CCc1c(C)[nH]c(=O)c(/C=C/I)c1Oc1cc(C)cc(C)c1` it is 100 nM.
For the compound `CCc1c(C)[nH]c(=O)c(-c2ccco2)c1Oc1cc(C)cc(C)c1`, the “Ratio CC50/IC50” value in assay [2] worked out at 126. Further, in assay [1], the IC50 came to 15.8 nM.
As for `CCc1c(C)[nH]c(=O)c(CC)c1Oc1cc(C)cc(C)c1`, the “Ratio CC50/IC50” value in assay [2] was 3162. Also, the 50% inhibitory concentration (IC50) in assay [4] was 12.5 nM; in assay [5], 39.8 nM; in assay [6], 39.8 nM; in assay [1] it was 3.1 nM; in assay [8], 63.1 nM.
For `CCc1c(C)[nH]c(=O)c(-c2ccsc2)c1Oc1cc(C)cc(C)c1`, in assay [1], the 50% inhibitory concentration (IC50) worked out at 50.1 nM.
Regarding `CCc1c(C)[nH]c(=O)c([S+](C)[O-])c1Oc1cc(C)cc(C)c1` (stereo unspecified), the “Ratio CC50/IC50” value in assay [2] was found to be 6309. Further, in assay [1], the concentration for half-maximal inhibition (IC50) turned out to be 15.8 nM.
`CCc1c(C)[nH]c(=O)c(C(C)C)c1Oc1cc(C)cc(C)c1`: the “Ratio CC50/IC50” value in assay [2] turned out to be 5012. Besides, the IC50 in assay [4] is 12.5 nM; in assay [5], 39.8 nM; in assay [6], 39.8 nM; in assay [1], 19.9 nM; in assay [8], 31.6 nM.
`O=C1Nc2ccc(Cl)cc2C(C#CC2CC2)(C(F)(F)F)O1` (single isomer, unassigned) [EFAVIRENZ]: in assay [3], the concentration for half-maximal inhibition (IC50) turned out to be 1000 nM.
